Results on 2 compounds are retold here after patent publication US7022875B2, “Thiobutacin and antifungal and antioomycete composition for controlling plant diseases using the same” (Korea University Industry and Academy Cooperation Foundation, priority 2003, dated 2006).

The structures appear in SMILES notation. Values after ≈ are worked out from the molar mass of the structure shown.

In assay [1] the test system is Colletotrichum orbiculare. Description: MIC in microtiter plates. The format is cell-based.
The test system of the next assay is Saccharomyces cerevisiae. Description: microbe, parasite or virus in culture. It is filed as cell-based. Particulars: 96 h, 28° C., 4 days.
Assay [2] relates to Xanthomonas campestris pv. Vesicatoria. Description: microbe, parasite or virus in culture. It is filed as cell-based. The settings on record: 96 h, 28° C., 4 days.
In the next assay the test system is Rhizoctonia solani. Description: MIC in microtiter plates. The format is cell-based.
Assay [3] deals with Fusarium oxysporum f.sp. cucumerinum. Description: MIC in microtiter plates. The format is cell-based.
A further assay deals with Magnaporthe grisea. Description: microbe, parasite or virus in culture. It is filed as cell-based.
For a further assay, the system named is Phytophthora capsici. The assay can be described thus: microbe, parasite or virus in culture. The format is cell-based. Particulars: 96 h, 28° C., 4 days.
The test system of the next assay is Ralstonia solanacearum. The assay can be described thus: microbe, parasite or virus in culture. Particulars: 96 h. The format is cell-based.
Assay [4] relates to Erwinia carotovora subsp. carotovora. The assay can be described thus: microbe, parasite or virus in culture. Particulars: Pectobacterium carotovorum, 96 h; 28° C., 4 days. The format is cell-based.
For the next assay, the system named is Candida albicans. The assay can be described thus: microbe, parasite or virus in culture. It is filed as cell-based. The settings on record: 96 h, 28° C., 4 days.
In the next assay the test system is Botrytis cinerea. The assay can be described thus: MIC in microtiter plates. The format is cell-based. The settings on record: 96 h, 28° C., 4 days, complete inhibition of growth.
A further assay relates to Cladosporium cucumerinum. Description: MIC in microtiter plates. Particulars: 96 h, 28° C., 4 days, complete inhibition of growth. The format is cell-based.
Assay [5] deals with Phytophthora capsici infection on pepper plants. The assay can be described thus: Control efficacy against Phytophthora blight on pepper plants in a growth room. It is filed as in vivo. The method, then: The commercial fungicide metalaxyl was used to compare the antifungal activity with thiobutacin against Phytophthora capsici infection on pepper plants in a growth room. Before the pepper plant was inoculated with Phytophthora capsici infection, disease severity was determined both for each treated with various concentrations of thiobutacin and metalaxyl and for the untreated control. Disease severity on pepper plants was rated daily after inoculation based on a scale 0-5: 0=no visible disease symptoms; 1=leaves slightly wilted with brownish lesions beginning to appear on stems; 2=30-50% of entire plant diseased; 3=50-70% of entire plant diseased; 4=70-90% of entire plant diseased; and 5=plant dead.

The subject of the next assay is Alternaria mali. The assay can be described thus: MIC in microtiter plates. It is filed as cell-based.
Another assay concerns Bacillus subtilis. Description: microbe, parasite or virus in culture. It is filed as cell-based. Particulars: 96 h, 28° C., 4 days.
[6] abbreviates: 96 h, 28° C., 4 days, complete inhibition of growth.
Setting [7] is: from 4 days after inoculation, treated plants.
Setting [8] is: from 5 days after inoculation, 10 μg/ml.

As to `CSC(CC(=O)c1ccccc1N)C(=O)O` (stereo not drawn) [thiobutacin, 4-(2-aminophenyl)-4-oxo-2-methylthio-butanoic acid], the “growth inhibition (in words)” value (in assay [1]; in the assay on Rhizoctonia solani; in assay [3] (Fusarium oxysporum f. sp. cucumerinum); in the assay with Magnaporthe grisea (Magnaporthe grisea); in the assay on Alternaria mali) was “not inhibited” throughout. Moreover, the MIC was above 100 µg/mL in assay [1] (setting [6]); 30 µg/mL (≈ 125 µM) in the assay with Saccharomyces cerevisiae; above 100 µg/mL in assay [2]; above 100 µg/mL against Rhizoctonia solani (setting [6]); above 100 µg/mL in assay [3] (96 h, Fusarium oxysporum f.sp. cucumerinum, 28° C., 4 days, complete inhibition of growth); above 100 µg/mL against Magnaporthe grisea (Pyricularia oryzae, 96 h). Besides, the MIC against Phytophthora capsici is 10 µg/mL (≈ 41.8 µM); against Ralstonia solanacearum, above 100 µg/mL; in assay [4], above 100 µg/mL; against Candida albicans, above 100 µg/mL; with Botrytis cinerea, 50 µg/mL (≈ 209 µM); in the assay with Cladosporium cucumerinum, 50 µg/mL (≈ 209 µM). Further, the MIC against Alternaria mali (setting [6]) and against Bacillus subtilis was above 100 µg/mL throughout. Also, the “disease symptoms on pepper plants” value is reported as “slight damages” in assay [5] (after 10 days, 100 μg/ml); “did not show any phytophthora infection” in assay [5] (after 10 days, 500 μg/ml); “did not exhibit any symptoms” in assay [5] (setting [7]); “exhibited the disease development in the leaves” in [5] (setting [8]).

As to `COCC(=O)N(c1c(C)cccc1C)C(C)C(=O)OC` (stereo not drawn) [metalaxyl, reference compound], the “disease symptoms on pepper plants” value is reported as “did not exhibit any symptoms” in [5] (setting [7]); “slight disease symptoms” in [5] (setting [8]); “exhibited the disease development in the leaves” in [5] (from 5 days after inoculation, 50 μg/ml); “did not show any phytophthora development” in assay [5] (higher concentrations than 100 μg/ml).
